The values below come from PMC7934871 (JCI Insight, 2021).

One assay deals with T1, STAT1 (Homo sapiens, UniProt P42224).
T1 construct: endogenous in cells; host or cells: U251
In words: Immunoprecipitation and Western blotting, STAT1. Conditions: immunoprecipitation, Western blotting, U251 cells. In kind it is binding. The text has this:
Figure 2 PS-acet.-STAT3-peptide specifically binds STAT3 in the nucleus. (A) Penetration of PS-acet.-STAT3 peptide and its colocalization with STAT3 protein in U251 cells are confirmed by confocal microscopy. Scale bars: 50 μm. Insets: original magnification, ×40. (B) PS-acet.-STAT3 peptide specifically binds to STAT3 protein, not STAT1 and STAT5 proteins, shown in U251 cells by immunoprecipitation followed by Western blotting (left panel). Expression of total STAT1, STAT3, and STAT5 was confirmed by Western blotting in U251 cells (input protein level, right panel).
Whole cell lysates or tissue homogenates were prepared by using RIPA lysis buffer (50 mM Tris at pH 7.4, 150 mM NaCl, 1 mM EDTA, 0.5% NP-40, 1 mM NaF, 15% glycerol, and 20 mM β-glycerophosphate). […] Protein amounts were determined by BCA using a Thermo Fisher Scientific kit. […] The protein levels for STAT1 (sc-346, E-23), STAT3 (sc-482, C-20), STAT5 (sc-74442, A-9), Crm1 (exportin 1) (sc-5595, H-300), CAS (exportin 2) (sc-271537, H-2), exportin 5 (sc-66885, H-300), and exportin 7 (sc-98639, H-82) were determined using antibodies from Santa Cruz Biotechnology Inc. Anti–exportin 3 (exportin T, 630622, LOS1 05-1525), anti–exportin 4 (3499-1), and anti–exportin 6 (11408-1-AP) were from MilliporeSigma, Epitomics, and Proteintech, respectively. […]
(In western blotting, separated proteins are transferred to a membrane and probed.)

In a further assay the test system is pY694-STAT5. In words: Western blotting of p-STAT5 in HCT116 cells. It is filed as cell-based, human. Conditions: HCT116, 1 µM, 48 hours. The procedure:
Whole cell lysates or tissue homogenates were prepared by using RIPA lysis buffer (50 mM Tris at pH 7.4, 150 mM NaCl, 1 mM EDTA, 0.5% NP-40, 1 mM NaF, 15% glycerol, and 20 mM β-glycerophosphate). A protease inhibitor cocktail (Mini Protease Inhibitor Cocktail; Roche) and a tyrosine phosphatase inhibitor, sodium orthovanadate (Na3VO4, 1 mM), were added freshly to the lysis buffer. Protein amounts were determined by BCA using a Thermo Fisher Scientific kit. Normalized protein amounts were subjected to an SDS-PAGE and transferred onto a nitrocellulose membrane for Western blotting. Proteins were visualized with a chemiluminescent detection kit (Pierce, Thermo Fisher Scientific). The protein levels for STAT1 (sc-346, E-23), STAT3 (sc-482, C-20), STAT5 (sc-74442, A-9), Crm1 (exportin 1) (sc-5595, H-300), CAS (exportin 2) (sc-271537, H-2), exportin 5 (sc-66885, H-300), and exportin 7 (sc-98639, H-82) were determined using antibodies from Santa Cruz Biotechnology Inc. Anti–exportin 3 (exportin T, 630622, LOS1 05-1525), anti–exportin 4 (3499-1), and anti–exportin 6 (11408-1-AP) were from MilliporeSigma, Epitomics, and Proteintech, respectively. […]
Supplemental Figure 4 (related to Figure 1). […] Phosphorylation of STAT3 at Y705 and STAT5 at Y694 was detected by Western blotting after 48 hours treatment of PS-acet.-STAT3 peptide (1 µM) or napabucasin (1 µM) in HCT116 cells. […]

T1 sequence (P42224 whole entry): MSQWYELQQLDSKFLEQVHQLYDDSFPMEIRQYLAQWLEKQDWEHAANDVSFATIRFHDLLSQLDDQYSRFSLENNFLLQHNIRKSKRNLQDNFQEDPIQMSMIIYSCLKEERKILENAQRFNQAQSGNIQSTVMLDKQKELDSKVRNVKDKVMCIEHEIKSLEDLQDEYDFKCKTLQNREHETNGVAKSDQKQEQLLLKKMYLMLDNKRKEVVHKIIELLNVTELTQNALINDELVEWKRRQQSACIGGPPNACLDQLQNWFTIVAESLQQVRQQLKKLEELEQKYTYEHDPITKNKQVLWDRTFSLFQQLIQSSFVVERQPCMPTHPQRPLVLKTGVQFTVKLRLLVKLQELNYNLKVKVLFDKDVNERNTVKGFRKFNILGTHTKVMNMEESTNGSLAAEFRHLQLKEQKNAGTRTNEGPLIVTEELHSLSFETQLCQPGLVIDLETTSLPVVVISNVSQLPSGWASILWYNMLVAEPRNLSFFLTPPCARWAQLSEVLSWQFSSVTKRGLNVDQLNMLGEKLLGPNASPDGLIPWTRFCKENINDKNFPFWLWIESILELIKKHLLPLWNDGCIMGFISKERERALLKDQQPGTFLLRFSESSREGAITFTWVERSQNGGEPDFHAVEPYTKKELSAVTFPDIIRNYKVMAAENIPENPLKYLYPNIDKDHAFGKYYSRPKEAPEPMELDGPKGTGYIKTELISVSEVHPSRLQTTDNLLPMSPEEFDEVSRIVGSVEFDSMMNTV

“PDIPKEEAFGK685(Ac)YCRPESQEHPC-linker-T*C*C*A*T*G*A*G*C*T*T*C*C*T*G*A*T*G*C*T [PS-acet.-STAT3 peptide]”: the “binding to STAT1 protein” value at STAT1 is given as “not”. Moreover, the “p-STAT5 (Y694) level” value in the assay on pY694-STAT5 was “not”.
